Reference: publication PMC12373729 (Scientific Reports, 2025)
“Also recorded” adds a separate entry of the source. Where a name gives a salt, the structure may show the parent alone. Read-outs that look alike come from different tables or passages of the source.

Assays:
[1] = tested on: SARS-CoV-2; assay: microbe, parasite or virus in culture; format: cell-based
[2] = tested on: Vero E6 cells
[3] = in vitro; settings: African green monkey
[4] = Cell viability / 50% cytotoxic concentration, EZ-Cytox kit; settings: African green monkey, CC50, Vero E6 cells
[5] = tested on: Vero E6 cells; assay: as above; settings: Vero E6 cells, 1 nM–100 µM, 2 days of treatment; Table S2
[6] = all patients, clinical settings; cited from earlier work
[7] = tested on: SARS-CoV-2 papain-like protease; settings: cited from earlier work
[8] = tested on: SARS-CoV-2; settings: cited from earlier work
[9] = tested on: ZIKV protease; set-up: method as in Cardoso et al. 43, 44; settings: competitive inhibition; ref Cardoso et al. 43, 44; cited from earlier work
[10] = tested on: YFV protease; settings: competitive inhibition; ref Cardoso et al. 43, 44; cited from earlier work
[11] = tested on: CHIKV nsP2 protease; set-up: method as in Cardoso et al. 43, 44; settings: ref Cardoso et al. 43, 44; cited from earlier work
[12] = Severe acute respiratory syndrome coronavirus 2, Vero C1008, Vero E6 cells, MOI 0.01, compound together with virus for 2 h, titers at 48 h, Table S2, '-' = no significant antiviral effect, read-out: IC50
[13] = Severe acute respiratory syndrome coronavirus 2, Vero C1008, compound added 2 h before inoculation, washed, then infected 2 h, titers 48 h post-infection, '-' = no measurable antiviral effect, read-out: IC50 Pre-infection
[14] = Severe acute respiratory syndrome coronavirus 2, Vero C1008, infected 2 h, washed, then medium containing compound, titers 48 h post-infection, '-' = no measurable antiviral effect, read-out: IC50 Post-infection
[15] = Vero E6 cells, MOI 0.01, compound together with virus for 2 h, titers at 48 h, Table S2, '-' = no significant antiviral effect, read-out: IC50
[16] = 1 nM–100 µM, 2 days of treatment, Table S2
[17] = Severe acute respiratory syndrome coronavirus 2, Vero C1008, Vero E6 cells, MOI 0.01, treatment during inoculation 2 h, then drug-free 48 h, Fig. 1, read-out: IC50
[18] = Vero E6 cells, MOI 0.01, treatment during inoculation 2 h, then drug-free 48 h, Fig. 1, read-out: IC50

Compound: Cc1cc2nc3c(=O)[nH]c(=O)nc-3n(C[C@H](O)[C@H](O)[C@H](O)COP(=O)(O)O)c2cc1C [riboflavin 5′-monophosphate sodium salt hydrate]
- IC50 [1, 12]: 59.4 µM
- IC50 [1, 13]: > 100 µM
- IC50 ([1]; Severe acute respiratory syndrome coronavirus 2, Vero C1008, compound and virus simultaneously for 2 h, washed, titers 48 h post-infection, read-out: IC50 During infection): 59.4 µM
- IC50 [1, 14]: > 100 µM
- CC50 ([2]; African green monkey, 2 days): > 100 µM
- CC50 at 2 days [3]: 98.9 µM

Compound: Nc1ncnc2c1ncn2[C@@H]1O[C@@H]2COP(=O)(O)O[C@H]3[C@@H](O)[C@H](n4cnc5c(N)ncnc54)O[C@@H]3COP(=O)(O)O[C@H]2[C@H]1O [c-di-AMP sodium salt (2BA), c-di-AMP sodium salt]
- IC50 [1, 15]: > 100 µM
- CC50 [2]: > 100 µM

Compound: O=c1[nH]cnc2nc[nH]c12 [Hypoxanthine (HPA), hypoxanthine]
- IC50 [1, 12]: > 100 µM
- CC50 at 2 days [4, 16]: > 100 µM

Compound: Nc1ncnc2c1ncn2[C@@H]1O[C@H](CSCC[C@H](N)C(=O)O)[C@@H](O)[C@H]1O [S-Adenosyl-L-homocysteine (SAH), S-adenosyl-l-homocysteine]
- IC50 [1, 15]: > 100 µM
- CC50 [5]: > 100 µM

Compound: NC[C@@H]1O[C@H](O[C@H]2[C@@H](O)[C@H](O[C@@H]3[C@@H](O)[C@H](N)C[C@H](N)[C@H]3O[C@H]3O[C@H](CN)[C@@H](O)[C@H](O)[C@H]3N)O[C@@H]2CO)[C@H](N)[C@@H](O)[C@@H]1O [Neomycin solution (NMY), neomycin solution]
- IC50 [1, 15]: > 100 µM
- CC50 [5]: > 100 µM

Compound: Nc1nc2c(ncn2[C@@H]2O[C@@H]3COP(=O)(O)O[C@H]4[C@@H](O)[C@H](n5cnc6c(N)ncnc65)O[C@@H]4COP(=O)(O)O[C@H]3[C@H]2O)c(=O)[nH]1 [cGAMP sodium salt]
- IC50 [1, 15]: > 100 µM
- CC50 [5]: > 100 µM

Compound: CCC(CC)COC(=O)[C@H](C)N[P@](=O)(OC[C@H]1O[C@@](C#N)(c2ccc3c(N)ncnn23)[C@H](O)[C@@H]1O)Oc1ccccc1 [Remdesivir]
- IC50 [1, 17]: 25.8 µM
- IC50 [1, 13]: < 6.11 µM
- IC50 [1, 14]: 3.47 µM
- IC50 [1, 18]: 25.8 µM
- patients with elevated liver enzymes [6]: 35%
- CC50 at 2 days ([4]; 0–100 μM, Table S3): 98.9 µM
- CC50 at 2 days [4, 16]: > 100 µM

Compound: Cc1cc2nc3c(=O)[nH]c(=O)nc-3n(C[C@H](O)[C@H](O)[C@H](O)CO)c2cc1C [riboflavin]
- IC50 [1, 17]: 59.4 µM
- antiviral effect, treatment post-infection ([1]; Vero E6 cells, 2 h post-infection, in words): no measurable antiviral effects; also recorded: no effect
- antiviral effect, treatment prior to infection ([1]; Vero E6 cells, 2 h prior to infection, in words): no measurable antiviral effects; also recorded: no effect
- IC50 [1, 18]: 59.4 µM
- antiviral effect, treatment during viral inoculation ([1]; Vero E6 cells, in words): significant inhibition; also recorded: significantly reduced viral replication
- effect on viral replication when added to the culture medium after viral inoculation ([1]; drug-containing media for 48 h, Supplementary Fig. S1, in words): additional inhibitory effects on viral replication were observed
- concentration inhibiting SARS-CoV-2 papain-like protease in vitro [7]: > 50 µM
- concentration inhibiting viral papain-like protease (PLpro) ([7]; high concentrations, ref 2 (supplement)): > 50 µM
- effect on viral replication in cellular models [8]: fails to block viral replication
- IC50, ZIKV protease [9]: medium micromolar range
- IC50, YFV protease [10]: medium micromolar range
- activity against CHIKV nsP2 protease [11]: potent activity
- CC50 at 2 days ([4]; text and Fig. 1 (Fig. 1: 2 h treatment, then drug-free media 48 h)): > 100 µM

Compound: N[C@@H](Cc1c[nH]c2ccc(O)cc12)C(=O)O [5-Hydroxy-L-tryptophan (4PQ), 5-hydroxy-L-tryptophan]
- IC50 [1, 12]: > 100 µM
- CC50 at 2 days [3]: > 100 µM

Compound: C/C1=C2/N[C@H]([C@H](CC(N)=O)[C@@]2(C)CCC(=O)NC[C@@H](C)OP(=O)(O)O[C@H]2[C@@H](O)[C@@H](n3cnc4cc(C)c(C)cc43)O[C@@H]2CO)[C@]2(C)N=C(/C(C)=C3N=C(/C=C4N=C1[C@@H](CCC(N)=O)C\4(C)C)[C@@H](CCC(N)=O)[C@]\3(C)CC(N)=O)[C@@H](CCC(N)=O)[C@]2(C)CC(N)=O.C[C@H]1O[C@@H](n2cnc3c(N)ncnc32)[C@H](O)[C@@H]1O.[Co] [Coenzyme B12 (B1Z), coenzyme B12]
- IC50 [1, 15]: > 100 µM
- CC50 [2]: > 100 µM

Compound: Nc1ncnc2nc[nH]c12 [Adenine (ADE), adenine]
- IC50 [1, 12]: > 100 µM
- CC50 [3]: > 100 µM

Compound: COc1cc2nc(N3CCNCC3)nc(N)c2cc1OC [6,7-dimethoxy-2-(1-piperazinyl)-4-quinazolinamine]
- IC50 [1, 12]: > 100 µM
- CC50 at 2 days [3]: > 100 µM

Compound: C/C1=C2/[N-][C@H]([C@H](CC(N)=O)[C@@]2(C)CCC(=O)NC[C@@H](C)OP(=O)([O-])O[C@H]2[C@@H](O)[C@@H](n3cnc4cc(C)c(C)cc43)O[C@@H]2CO)[C@]2(C)N=C(/C(C)=C3N=C(/C=C4N=C1[C@@H](CCC(N)=O)C\4(C)C)[C@@H](CCC(N)=O)[C@]\3(C)CC(N)=O)[C@@H](CCC(N)=O)[C@]2(C)CC(N)=O.[Co+3].[OH-] [Hydroxocobalamin (HPA), hydroxocobalamin]
- IC50 [1, 15]: > 100 µM
- CC50 [5]: > 100 µM
